In general, IC50 refers to the midpoint of a concentration-inhibition curve. Read a low IC50 as higher potency.

For this assay, the system named is Endogenous Huntingtin Protein. The assay can be described thus: Endogenous Huntingtin Protein Assay (MSD plates, MW1 or MAB2166 capture antibody). It is filed as cell-based. Particulars: Table 1. The method, boiled down:
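Sandwich MSD immunoassay: plates were coated overnight at 4° C with MW1 (expanded polyQ) or MAB2166 capture antibody at 1 μg/mL, then blocked with 5% BSA. Samples were bound overnight at 4° C, followed by rabbit mAb #5656S and SULFO-TAG anti-rabbit detection, each at 0.25 μg/mL for 1 h at room temperature. Signal was read by electrochemiluminescence.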
With `CCN1CCC(N(C)c2nc3sc(-c4ncc(-c5cn[nH]c5)cc4O)nc3s2)CC1` [Compound 207, 2-{5-[(1-ethylpiperidin-4-yl)(methyl)amino][1,3]thiazolo[5,4-d][1,3]thiazol-2-yl}-5-(1H-pyrazol-4-yl)pyridin-3-ol], the IC50 was at most 100 nM. Consider `Oc1cc(-c2cn[nH]c2)ccc1-c1nc2sc(C3CCNCC3)nc2s1` [Compound 208, 2-[5-(piperidin-4-yl)[1,3]thiazolo[5,4-d][1,3]thiazol-2-yl]-5-(1H-pyrazol-4-yl)phenol], for which the IC50 is 1000 to 3000 nM.

As to `Oc1cc(-c2cn[nH]c2)cnc1-c1nc2sc(N3CC4(CCNCC4)C3)nc2s1` [Compound 209, 2-[5-(2,7-diazaspiro[3.5]nonan-2-yl)[1,3]thiazolo[5,4-d][1,3]thiazol-2-yl]-5-(1H-pyrazol-4-yl)pyridin-3-ol], the IC50 is at most 100 nM.

`CN(c1nc2sc(-c3ncc(-c4ccc5nncn5c4)cc3O)nc2s1)C1CCNCC1` [Compound 210, 2-{5-[methyl(piperidin-4-yl)amino][1,3]thiazolo[5,4-d][1,3]thiazol-2-yl}-5-([1,2,4]triazolo[4,3-a]pyridin-6-yl)pyridin-3-ol] yielded an IC50 of 3000 to 9000 nM.

The compound `CN1C[C@@H]2CN(c3nc4sc(-c5ccc(-c6cn[nH]c6)cc5O)nc4s3)C[C@@H]2C1` [Compound 211, 2-{5-[(3aR,6aS)-5-methylhexahydropyrrolo[3,4-c]pyrrol-2(1H)-yl][1,3]thiazolo[5,4-d][1,3]thiazol-2-yl}-5-(1H-pyrazol-4-yl)phenol] displayed an IC50 of 1000 to 3000 nM. In the case of `CN(c1nc2sc(-c3ncc(-n4cncn4)cc3O)nc2s1)C1CCNCC1` [Compound 212, 2-{5-[methyl(piperidin-4-yl)amino][1,3]thiazolo[5,4-d][1,3]thiazol-2-yl}-5-(1H-1,2,4-triazol-1-yl)pyridin-3-ol], the IC50 was in the range of 100 to 500 nM. For `CN(c1nc2sc(-c3ncc(-c4cn[nH]c4)cc3O)nc2s1)[C@H]1CCNC1` [Compound 213, 2-(5-{methyl[(3S)-pyrrolidin-3-yl]amino}[1,3]thiazolo[5,4-d][1,3]thiazol-2-yl)-5-(1H-pyrazol-4-yl)pyridin-3-ol], the IC50 is at most 100 nM. As to `CN(c1nc2sc(-c3ncc(-n4nccn4)cc3O)nc2s1)C1CCNCC1` [Compound 214, 2-{5-[methyl(piperidin-4-yl)amino][1,3]thiazolo[5,4-d][1,3]thiazol-2-yl}-5-(2H-1,2,3-triazol-2-yl)pyridin-3-ol], the IC50 was 500 to 1000 nM. `CN(c1nc2sc(-c3ncc(-n4ccnn4)cc3O)nc2s1)C1CCNCC1` [Compound 215, 2-{5-[methyl(piperidin-4-yl)amino][1,3]thiazolo[5,4-d][1,3]thiazol-2-yl}-5-(1H-1,2,3-triazol-1-yl)pyridin-3-ol] gave an IC50 of 100 to 500 nM. Regarding `CN(c1nc2sc(-c3ncc(-c4cnsc4)cc3O)nc2s1)C1CCNCC1` [Compound 216, 2-{5-[methyl(piperidin-4-yl)amino][1,3]thiazolo[5,4-d][1,3]thiazol-2-yl}-5-(1,2-thiazol-4-yl)pyridin-3-ol], the IC50 is at most 100 nM.

Take `CN1CCC(N(C)c2nc3sc(-c4ncc(-c5cn[nH]c5)cc4O)nc3s2)CC1` [Compound 217, 2-{5-[methyl(1-methylpiperidin-4-yl)amino][1,3]thiazolo[5,4-d][1,3]thiazol-2-yl}-5-(1H-pyrazol-4-yl)pyridin-3-ol]: the IC50 was at most 100 nM.

Compound `CCN(c1nc2sc(-c3ncc(-c4cn[nH]c4)cc3O)nc2s1)C1CCN(C)CC1` [Compound 218, 2-{5-[ethyl(1-methylpiperidin-4-yl)amino][1,3]thiazolo[5,4-d][1,3]thiazol-2-yl}-5-(1H-pyrazol-4-yl)pyridin-3-ol] gave an IC50 of at most 100 nM. In the case of `Cc1n[nH]cc1-c1cnc(-c2nc3sc(N(C)C4CCNCC4)nc3s2)c(O)c1` [Compound 219, 2-{5-[methyl(piperidin-4-yl)amino][1,3]thiazolo[5,4-d][1,3]thiazol-2-yl}-5-(3-methyl-1H-pyrazol-4-yl)pyridin-3-ol] it was at most 100 nM; in that of `CN(c1nc2sc(-c3ncc(-c4cn[nH]c4Cl)cc3O)nc2s1)C1CCNCC1` [Compound 220, 5-(5-chloro-1H-pyrazol-4-yl)-2-{5-[methyl(piperidin-4-yl)amino][1,3]thiazolo[5,4-d][1,3]thiazol-2-yl}pyridin-3-ol], at most 100 nM.

On to `Cc1cn(-c2cnc(-c3nc4sc(N(C)C5CCNCC5)nc4s3)c(O)c2)cn1` [Compound 221, 5-(4-methyl-1H-imidazol-1-yl)-2-{5-[methyl(piperidin-4-yl)amino][1,3]thiazolo[5,4-d][1,3]thiazol-2-yl}pyridin-3-ol], for which the IC50 is at most 100 nM. Compound `Cc1ncc(-c2cnc(-c3nc4sc(N(C)C5CCNCC5)nc4s3)c(O)c2)s1` [Compound 222, 2-{5-[methyl(piperidin-4-yl)amino][1,3]thiazolo[5,4-d][1,3]thiazol-2-yl}-5-(2-methyl-1,3-thiazol-5-yl)pyridin-3-ol] yielded an IC50 of at most 100 nM. In the case of `Cc1ncc(-c2cnc(-c3nc4sc(N(C)C5CCNCC5)nc4s3)c(O)c2)o1` [Compound 223, 5-(2-methyl-1,3-oxazol-5-yl)-2-{5-[methyl(piperidin-4-yl)amino][1,3]thiazolo[5,4-d][1,3]thiazol-2-yl}pyridin-3-ol], the IC50 was at most 100 nM.

With `Cc1cc(-c2cnc(-c3nc4sc(N(C)C5CCNCC5)nc4s3)c(O)c2)cnn1` [Compound 224, 2-{5-[methyl(piperidin-4-yl)amino][1,3]thiazolo[5,4-d][1,3]thiazol-2-yl}-5-(6-methylpyridazin-4-yl)pyridin-3-ol], the IC50 was at most 100 nM. Regarding `CN(c1nc2sc(-c3ncc(-c4ccnnc4)cc3O)nc2s1)C1CCNCC1` [Compound 225, 2-{5-[methyl(piperidin-4-yl)amino][1,3]thiazolo[5,4-d][1,3]thiazol-2-yl}-5-(pyridazin-4-yl)pyridin-3-ol], the IC50 was at most 100 nM. Compound `CN(c1nc2sc(-c3cnc(-c4cn[nH]c4)c4[nH]ccc34)nc2s1)C1CCNCC1` [Compound 226, N-methyl-N-(piperidin-4-yl)-5-[7-(1H-pyrazol-4-yl)-1H-pyrrolo[2,3-c]pyridin-4-yl][1,3]thiazolo[5,4-d][1,3]thiazol-2-amine] registered an IC50 of at most 100 nM. As to “N-methyl-N-[(2S,4R)-2-methylpiperidin-4-yl]-5-[4-(1H-pyrazol-4-yl)-1H-pyrrolo[2,3-c]pyridin-7-yl][1,3]thiazolo[5,4-d][1,3]thiazol-2-amine [Compound 71]”, the half-inhibitory concentration (IC50) was in the range of 100 to 500 nM.

As for “N-methyl-N-[(2S,4R)-2-methylpiperidin-4-yl]-5-[4-(1H-pyrazol-4-yl)-1H-pyrrolo[2,3-c]pyridin-7-yl][1,3]thiazolo[5,4-d][1,3]thiazol-2-amine [Compound 72]”, the IC50 is at most 100 nM.

Values taken from patent publication US11685746B2, “Heteroaryl compounds for treating Huntington's disease” (PTC THERAPEUTICS, INC., priority 2018, dated 2023).
